Data as given in ChEMBL document CHEMBL4507319 (2021).

Columns and labels:
[1] = target: Cyclin-dependent kinase 4 (Homo sapiens) (UniProt P11802); conditions: Compound concentration 1000.0 nM
[2] = target: Serine/threonine-protein kinase Chk2 (Homo sapiens) (UniProt O96017); conditions: Compound concentration 1000.0 nM
[3] = target: Tyrosine-protein kinase CSK (Homo sapiens) (UniProt P41240); conditions: Compound concentration 1000.0 nM
[4] = test system: Epidermal growth factor receptor (Homo sapiens), P00533 [G719S]; conditions: Compound concentration 1000.0 nM
[5] = target: Focal adhesion kinase 1 (Homo sapiens) (UniProt Q05397); conditions: Compound concentration 1000.0 nM
[6] = target: Fibroblast growth factor receptor 1 (Homo sapiens) (UniProt P11362); conditions: Compound concentration 1000.0 nM
[7] = test system: Receptor-type tyrosine-protein kinase FLT3 (Homo sapiens), P36888 [N841I]; conditions: Compound concentration 1000.0 nM
[8] = target: Tyrosine-protein kinase Lyn (Homo sapiens) (UniProt P07948); conditions: Compound concentration 1000.0 nM
[9] = target: Serine/threonine-protein kinase MARK2 (Homo sapiens) (UniProt Q7KZI7); conditions: Compound concentration 1000.0 nM
[10] = target: Mitogen-activated protein kinase kinase kinase 14 (Homo sapiens) (UniProt Q99558); conditions: Compound concentration 1000.0 nM
[11] = target: Serine/threonine-protein kinase PAK 2 (Homo sapiens) (UniProt Q13177); conditions: Compound concentration 1000.0 nM
[12] = target: Platelet-derived growth factor receptor alpha (Homo sapiens) (UniProt P16234); conditions: Compound concentration 1000.0 nM
[13] = target: Calcium-dependent protein kinase 1 (Plasmodium falciparum) (UniProt P62344); conditions: Compound concentration 1000.0 nM
[14] = target: Phosphorylase b kinase gamma catalytic chain, skeletal muscle/heart isoform (Homo sapiens) (UniProt Q16816); conditions: Compound concentration 1000.0 nM
[15] = target: Serine/threonine-protein kinase N2 (Homo sapiens) (UniProt Q16513); conditions: Compound concentration 1000.0 nM
[16] = target: T1, cGMP-dependent protein kinase 1 (Homo sapiens) (UniProt Q13976); conditions: Compound concentration 1000.0 nM
T1 sequence (whole entry): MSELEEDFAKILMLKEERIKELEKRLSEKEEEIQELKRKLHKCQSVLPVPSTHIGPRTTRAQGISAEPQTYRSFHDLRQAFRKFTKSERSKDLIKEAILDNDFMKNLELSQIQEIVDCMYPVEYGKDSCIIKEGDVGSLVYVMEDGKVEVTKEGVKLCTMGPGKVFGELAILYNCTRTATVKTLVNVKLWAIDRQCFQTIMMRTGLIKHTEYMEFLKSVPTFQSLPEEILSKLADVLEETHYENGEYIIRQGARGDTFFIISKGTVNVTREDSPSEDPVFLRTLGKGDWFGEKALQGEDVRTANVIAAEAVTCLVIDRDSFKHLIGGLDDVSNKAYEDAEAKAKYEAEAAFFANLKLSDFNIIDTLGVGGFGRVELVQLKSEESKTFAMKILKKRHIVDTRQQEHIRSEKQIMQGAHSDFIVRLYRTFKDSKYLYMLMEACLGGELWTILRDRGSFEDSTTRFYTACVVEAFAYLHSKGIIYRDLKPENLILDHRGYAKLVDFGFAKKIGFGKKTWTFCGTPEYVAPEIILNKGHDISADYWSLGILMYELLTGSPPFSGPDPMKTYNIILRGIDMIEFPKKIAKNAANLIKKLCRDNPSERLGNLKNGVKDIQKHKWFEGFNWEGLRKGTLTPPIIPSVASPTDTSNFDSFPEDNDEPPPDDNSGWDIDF

[17] = target: T2, cAMP-dependent protein kinase catalytic subunit PRKX (Homo sapiens) (UniProt P51817); conditions: Compound concentration 1000.0 nM
T2 sequence (whole entry): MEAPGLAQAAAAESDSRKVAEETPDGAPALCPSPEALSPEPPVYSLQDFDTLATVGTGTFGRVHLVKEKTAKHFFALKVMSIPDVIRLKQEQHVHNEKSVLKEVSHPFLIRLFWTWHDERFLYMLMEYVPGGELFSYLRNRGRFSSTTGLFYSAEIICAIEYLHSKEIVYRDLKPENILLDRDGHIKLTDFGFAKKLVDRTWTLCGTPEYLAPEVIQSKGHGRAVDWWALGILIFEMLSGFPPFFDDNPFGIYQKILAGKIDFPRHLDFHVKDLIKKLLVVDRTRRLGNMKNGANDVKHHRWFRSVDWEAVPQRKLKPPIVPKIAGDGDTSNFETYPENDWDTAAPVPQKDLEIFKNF

[18] = target: T3, Serine/threonine-protein kinase ULK3 (Homo sapiens) (UniProt Q6PHR2); conditions: Compound concentration 1000.0 nM
T3 sequence (whole entry): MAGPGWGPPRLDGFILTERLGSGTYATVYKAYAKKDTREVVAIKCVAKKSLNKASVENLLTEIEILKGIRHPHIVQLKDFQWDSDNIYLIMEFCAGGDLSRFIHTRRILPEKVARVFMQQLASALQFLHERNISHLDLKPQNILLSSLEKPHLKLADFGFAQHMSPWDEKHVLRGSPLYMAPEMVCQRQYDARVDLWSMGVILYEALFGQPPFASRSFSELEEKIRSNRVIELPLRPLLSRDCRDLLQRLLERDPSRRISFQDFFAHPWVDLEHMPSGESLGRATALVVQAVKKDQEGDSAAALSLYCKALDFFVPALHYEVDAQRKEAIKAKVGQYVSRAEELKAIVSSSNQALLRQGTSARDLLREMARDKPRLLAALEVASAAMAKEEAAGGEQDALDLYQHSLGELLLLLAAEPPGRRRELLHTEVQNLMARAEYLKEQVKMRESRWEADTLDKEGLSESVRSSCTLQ

[19] = target: D(1B) dopamine receptor (Homo sapiens) (UniProt P21918); conditions: Compound concentration 10.0 uM
[20] = target: Alpha-2B adrenergic receptor (Homo sapiens) (UniProt P18089); conditions: Compound concentration 10.0 uM
Sequence of Alpha-2B adrenergic receptor (Homo sapiens) (P18089 whole entry): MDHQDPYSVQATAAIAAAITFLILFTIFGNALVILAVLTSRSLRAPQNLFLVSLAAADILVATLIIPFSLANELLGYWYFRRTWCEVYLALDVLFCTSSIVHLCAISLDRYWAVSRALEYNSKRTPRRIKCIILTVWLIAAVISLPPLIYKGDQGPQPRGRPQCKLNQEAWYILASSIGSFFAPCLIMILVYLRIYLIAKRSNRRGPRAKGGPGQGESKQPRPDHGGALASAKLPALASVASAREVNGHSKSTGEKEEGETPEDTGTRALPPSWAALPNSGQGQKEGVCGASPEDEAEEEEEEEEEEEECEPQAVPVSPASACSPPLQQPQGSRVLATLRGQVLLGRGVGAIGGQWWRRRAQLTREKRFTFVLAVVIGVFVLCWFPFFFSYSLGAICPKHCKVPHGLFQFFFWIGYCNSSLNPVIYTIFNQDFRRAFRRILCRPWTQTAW

Sequence of Serine/threonine-protein kinase PAK 2 (Homo sapiens) (Q13177 whole entry): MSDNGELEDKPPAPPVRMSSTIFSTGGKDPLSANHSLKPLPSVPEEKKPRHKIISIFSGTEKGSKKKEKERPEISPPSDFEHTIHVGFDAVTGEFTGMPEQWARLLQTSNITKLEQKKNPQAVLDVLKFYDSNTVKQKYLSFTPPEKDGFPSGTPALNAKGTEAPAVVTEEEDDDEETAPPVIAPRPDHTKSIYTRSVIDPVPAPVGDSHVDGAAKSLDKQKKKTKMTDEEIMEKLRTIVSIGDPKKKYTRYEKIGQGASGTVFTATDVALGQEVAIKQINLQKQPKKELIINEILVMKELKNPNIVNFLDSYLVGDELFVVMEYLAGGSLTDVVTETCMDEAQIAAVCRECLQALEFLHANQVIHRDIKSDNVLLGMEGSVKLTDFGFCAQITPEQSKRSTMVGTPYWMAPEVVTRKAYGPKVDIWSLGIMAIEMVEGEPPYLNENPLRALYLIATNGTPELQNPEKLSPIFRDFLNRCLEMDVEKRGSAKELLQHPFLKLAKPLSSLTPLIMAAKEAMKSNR
Sequence of Focal adhesion kinase 1 (Homo sapiens) (Q05397 2-1052 limits assumed): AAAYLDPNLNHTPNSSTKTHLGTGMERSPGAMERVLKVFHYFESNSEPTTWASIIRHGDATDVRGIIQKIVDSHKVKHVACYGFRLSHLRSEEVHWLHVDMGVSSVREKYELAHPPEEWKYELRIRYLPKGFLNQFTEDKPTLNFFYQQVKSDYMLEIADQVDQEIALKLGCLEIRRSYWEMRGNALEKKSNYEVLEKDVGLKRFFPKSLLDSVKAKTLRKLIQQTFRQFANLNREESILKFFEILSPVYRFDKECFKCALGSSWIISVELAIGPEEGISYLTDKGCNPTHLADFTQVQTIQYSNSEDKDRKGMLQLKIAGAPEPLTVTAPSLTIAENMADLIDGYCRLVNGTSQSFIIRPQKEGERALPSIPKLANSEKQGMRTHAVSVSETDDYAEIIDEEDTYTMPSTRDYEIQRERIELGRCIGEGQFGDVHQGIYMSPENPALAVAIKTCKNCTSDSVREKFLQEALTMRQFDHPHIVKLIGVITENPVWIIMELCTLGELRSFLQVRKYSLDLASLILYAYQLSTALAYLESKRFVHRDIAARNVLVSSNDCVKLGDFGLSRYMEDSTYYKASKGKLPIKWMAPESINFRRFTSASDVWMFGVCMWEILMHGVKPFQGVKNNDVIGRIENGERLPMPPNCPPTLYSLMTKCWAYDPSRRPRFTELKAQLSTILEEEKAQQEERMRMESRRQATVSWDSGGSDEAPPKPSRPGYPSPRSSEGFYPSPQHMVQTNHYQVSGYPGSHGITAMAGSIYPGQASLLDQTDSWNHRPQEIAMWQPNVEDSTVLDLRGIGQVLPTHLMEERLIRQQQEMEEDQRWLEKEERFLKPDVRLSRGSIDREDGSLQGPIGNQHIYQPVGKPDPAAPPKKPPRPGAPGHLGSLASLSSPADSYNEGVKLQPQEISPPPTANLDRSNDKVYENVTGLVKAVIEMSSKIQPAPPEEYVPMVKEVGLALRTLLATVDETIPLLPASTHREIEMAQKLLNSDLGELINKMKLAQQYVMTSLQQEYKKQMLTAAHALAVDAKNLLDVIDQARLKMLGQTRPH
Sequence of Cyclin-dependent kinase 4 (Homo sapiens) (P11802 whole entry): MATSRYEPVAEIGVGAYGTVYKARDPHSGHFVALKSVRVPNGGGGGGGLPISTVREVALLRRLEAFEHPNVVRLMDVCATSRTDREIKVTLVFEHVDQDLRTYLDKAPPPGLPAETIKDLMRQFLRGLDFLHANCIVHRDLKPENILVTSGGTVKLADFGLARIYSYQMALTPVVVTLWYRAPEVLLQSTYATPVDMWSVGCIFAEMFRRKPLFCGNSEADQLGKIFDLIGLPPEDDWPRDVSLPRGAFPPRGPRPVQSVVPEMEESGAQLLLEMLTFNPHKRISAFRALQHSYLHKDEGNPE
Sequence of Tyrosine-protein kinase Lyn (Homo sapiens) (P07948 2-512 limits assumed): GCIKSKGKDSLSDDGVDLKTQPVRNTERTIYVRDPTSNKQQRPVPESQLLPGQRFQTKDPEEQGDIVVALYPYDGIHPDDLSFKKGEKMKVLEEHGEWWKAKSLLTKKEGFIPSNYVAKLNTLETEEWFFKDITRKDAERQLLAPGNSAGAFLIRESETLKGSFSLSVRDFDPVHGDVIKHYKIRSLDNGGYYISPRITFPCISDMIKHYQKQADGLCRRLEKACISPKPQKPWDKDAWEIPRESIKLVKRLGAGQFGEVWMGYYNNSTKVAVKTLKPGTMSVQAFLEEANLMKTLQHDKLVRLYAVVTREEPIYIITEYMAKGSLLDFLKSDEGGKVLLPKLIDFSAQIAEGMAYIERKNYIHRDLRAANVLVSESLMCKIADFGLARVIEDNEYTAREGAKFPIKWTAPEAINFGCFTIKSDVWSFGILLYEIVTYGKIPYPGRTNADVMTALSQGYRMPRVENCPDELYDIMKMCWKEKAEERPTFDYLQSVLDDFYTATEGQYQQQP
Sequence of D(1B) dopamine receptor (Homo sapiens) (P21918 whole entry): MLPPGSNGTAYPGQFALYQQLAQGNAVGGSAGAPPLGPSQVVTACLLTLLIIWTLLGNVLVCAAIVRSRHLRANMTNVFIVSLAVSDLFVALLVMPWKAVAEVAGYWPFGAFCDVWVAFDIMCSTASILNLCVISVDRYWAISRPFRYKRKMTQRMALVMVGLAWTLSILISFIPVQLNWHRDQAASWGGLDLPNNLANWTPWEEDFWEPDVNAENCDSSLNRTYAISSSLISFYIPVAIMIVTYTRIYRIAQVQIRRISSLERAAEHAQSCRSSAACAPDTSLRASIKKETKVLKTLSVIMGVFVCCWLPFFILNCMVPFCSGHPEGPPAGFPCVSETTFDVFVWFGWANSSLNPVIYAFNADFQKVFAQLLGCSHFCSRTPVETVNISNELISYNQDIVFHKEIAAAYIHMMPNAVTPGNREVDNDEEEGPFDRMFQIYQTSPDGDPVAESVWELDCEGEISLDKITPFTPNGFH
Sequence of Serine/threonine-protein kinase N2 (Homo sapiens) (Q16513 whole entry, looked up): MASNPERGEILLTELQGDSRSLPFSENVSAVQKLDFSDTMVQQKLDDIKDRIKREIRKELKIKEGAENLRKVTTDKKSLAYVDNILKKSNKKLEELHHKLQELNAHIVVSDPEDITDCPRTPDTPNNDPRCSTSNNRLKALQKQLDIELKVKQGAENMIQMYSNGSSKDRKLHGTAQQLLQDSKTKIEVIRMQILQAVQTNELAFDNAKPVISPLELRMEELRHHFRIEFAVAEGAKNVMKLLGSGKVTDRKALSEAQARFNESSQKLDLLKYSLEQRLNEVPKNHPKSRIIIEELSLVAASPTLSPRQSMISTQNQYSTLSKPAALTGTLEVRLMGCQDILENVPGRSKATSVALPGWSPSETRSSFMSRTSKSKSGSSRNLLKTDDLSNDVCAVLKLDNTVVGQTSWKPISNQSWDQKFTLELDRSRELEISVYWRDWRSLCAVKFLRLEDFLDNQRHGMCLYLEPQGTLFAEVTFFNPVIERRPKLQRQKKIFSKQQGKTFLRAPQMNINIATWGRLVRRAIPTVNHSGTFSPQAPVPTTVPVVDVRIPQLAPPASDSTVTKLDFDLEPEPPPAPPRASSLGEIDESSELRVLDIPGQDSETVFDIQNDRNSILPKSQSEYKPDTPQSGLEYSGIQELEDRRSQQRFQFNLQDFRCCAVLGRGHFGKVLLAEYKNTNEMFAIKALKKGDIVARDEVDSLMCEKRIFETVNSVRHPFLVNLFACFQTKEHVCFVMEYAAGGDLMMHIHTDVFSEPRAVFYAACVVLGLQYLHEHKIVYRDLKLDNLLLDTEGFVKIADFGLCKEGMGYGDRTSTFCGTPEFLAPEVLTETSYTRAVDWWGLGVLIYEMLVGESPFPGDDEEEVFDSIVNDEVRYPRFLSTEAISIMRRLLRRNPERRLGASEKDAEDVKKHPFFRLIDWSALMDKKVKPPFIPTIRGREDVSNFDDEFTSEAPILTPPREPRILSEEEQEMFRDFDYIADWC
Sequence of Tyrosine-protein kinase CSK (Homo sapiens) (P41240 2-450 limits assumed): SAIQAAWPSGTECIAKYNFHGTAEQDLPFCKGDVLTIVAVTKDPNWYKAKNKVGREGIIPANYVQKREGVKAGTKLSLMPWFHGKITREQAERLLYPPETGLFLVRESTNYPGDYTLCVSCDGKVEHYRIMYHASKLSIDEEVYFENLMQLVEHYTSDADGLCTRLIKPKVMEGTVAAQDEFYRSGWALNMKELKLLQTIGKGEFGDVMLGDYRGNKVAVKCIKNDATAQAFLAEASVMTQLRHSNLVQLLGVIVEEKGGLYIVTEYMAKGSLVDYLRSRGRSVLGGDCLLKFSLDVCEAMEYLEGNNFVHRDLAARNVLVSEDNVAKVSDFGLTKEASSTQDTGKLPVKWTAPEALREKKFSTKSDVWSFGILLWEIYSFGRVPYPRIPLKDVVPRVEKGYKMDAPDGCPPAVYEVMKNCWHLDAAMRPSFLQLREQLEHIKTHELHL

Row | Compound | residual activity [1] | residual activity [2] | residual activity [3] | residual activity [4] | residual activity [5] | residual activity [6] | residual activity [7] | residual activity [8] | residual activity [9] | residual activity [10] | residual activity [11] | residual activity [12] | residual activity [13] | residual activity [14] | residual activity [15] | residual activity [16] | residual activity [17] | residual activity [18] | inhibition [19] | inhibition [20]
1 | CC1=C(C#N)C(c2ccc3c(c2)c(NC(=O)c2ccccc2C)nn3C)C(C#N)=C(C)N1 [BAY-974] | 79% | 74% | 85% | 87% | 94% | 97% | 74% | 89% | 99% | 69% | 100% | 86% | 98% | 91% | 100% | 100% | 76% | 84% | 14.6% | 20.7%
2 | CCc1ccccc1C(=O)Nc1n[nH]c2c(C)c(F)c(C3C(C#N)=C(C)N(C)C(C)=C3C#N)cc12 [BAY-3827] | 75% | 70% | 98% | 61% | 82% | 97% | 0% | 86% | 40% | 75% | 75% | 100% | 100% | 44% | 100% | 100% | 88% | 82% | 8.47% | 10.6%
